Consider five substances from publication PMC11655196, “Angiotensin-I-converting enzyme inhibitory peptides from eel (Anguilla japonica) bone collagen: preparation, identification, molecular docking, and protective function on HUVECs” (Frontiers in Nutrition, 2024).

The pIC50 is the IC50 on a negative log10 scale, so that one unit is a factor of ten.

Assay [1] addresses T1, ACE (Oryctolagus cuniculus, UniProt P12822).
T1 construct: ACE (≥2.0 U/mg, rabbit lung) was purchased; purchased Shanghai Yuanye Biotechnology Co., Ltd. (Shanghai, China); host or cells: rabbit lung (tissue-derived)
T1 sequence (P12822 34-1310): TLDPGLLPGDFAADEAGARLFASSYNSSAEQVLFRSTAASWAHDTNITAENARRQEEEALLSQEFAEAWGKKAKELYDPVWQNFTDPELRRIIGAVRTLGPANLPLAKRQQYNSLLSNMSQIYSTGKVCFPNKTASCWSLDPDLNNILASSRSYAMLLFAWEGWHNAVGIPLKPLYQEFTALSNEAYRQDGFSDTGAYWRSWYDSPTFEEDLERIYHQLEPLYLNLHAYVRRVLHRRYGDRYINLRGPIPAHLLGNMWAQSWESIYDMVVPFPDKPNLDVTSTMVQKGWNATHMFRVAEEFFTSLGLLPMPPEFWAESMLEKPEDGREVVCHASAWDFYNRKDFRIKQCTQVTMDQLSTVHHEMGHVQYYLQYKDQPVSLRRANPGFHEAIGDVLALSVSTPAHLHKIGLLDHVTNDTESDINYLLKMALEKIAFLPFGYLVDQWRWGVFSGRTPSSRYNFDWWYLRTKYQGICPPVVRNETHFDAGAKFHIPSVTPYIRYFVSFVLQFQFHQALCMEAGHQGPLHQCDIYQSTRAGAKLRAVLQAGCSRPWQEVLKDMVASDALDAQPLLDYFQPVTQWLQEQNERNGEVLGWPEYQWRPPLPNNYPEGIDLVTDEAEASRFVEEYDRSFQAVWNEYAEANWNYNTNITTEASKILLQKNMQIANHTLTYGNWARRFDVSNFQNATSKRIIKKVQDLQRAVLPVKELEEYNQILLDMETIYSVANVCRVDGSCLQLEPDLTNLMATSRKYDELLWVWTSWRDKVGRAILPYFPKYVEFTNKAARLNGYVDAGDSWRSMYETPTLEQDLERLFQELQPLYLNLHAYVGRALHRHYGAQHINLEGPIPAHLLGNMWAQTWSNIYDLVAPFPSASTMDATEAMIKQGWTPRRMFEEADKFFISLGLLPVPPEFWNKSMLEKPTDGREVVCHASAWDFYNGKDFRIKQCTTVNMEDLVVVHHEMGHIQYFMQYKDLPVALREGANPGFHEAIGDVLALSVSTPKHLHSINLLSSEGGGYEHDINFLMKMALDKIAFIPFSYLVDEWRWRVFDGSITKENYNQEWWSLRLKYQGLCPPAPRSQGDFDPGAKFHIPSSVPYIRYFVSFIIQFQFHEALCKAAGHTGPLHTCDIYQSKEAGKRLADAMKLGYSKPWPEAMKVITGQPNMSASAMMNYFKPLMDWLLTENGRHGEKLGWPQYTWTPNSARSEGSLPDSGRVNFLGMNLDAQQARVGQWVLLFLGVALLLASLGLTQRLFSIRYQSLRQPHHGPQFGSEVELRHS
Put plainly: ACE inhibition kinetics (Lineweaver-Burk plots). Format: biochemical, rabbit. The note with it: GPPGPPGL 0–100 μM, HHL 2 to 5 mM. How it is done: The ACE inhibition kinetics of the chosen peptides were determined using the method of previous research ([20]), using Lineweaver–Burk plots. The measurement of ACE activity was conducted at different concentrations of peptides, and HHL concentrations ranging from 2 to 5 mM were included. The Michaelis–Menten kinetic equation was used to compute the Michaelis–Menten constant (Km) and maximum reaction rate (Vmax) using data obtained from the Lineweaver–Burk plots.

Assay [2] deals with ACE. The following applies: read-out: IC50 (blood pressure lowering peptide, ACE), cited from earlier work. The text has this:
There were various peptides derived from food that are recognized for their ability to inhibit ACE activity, potentially leading to a reduction in blood pressure levels in vivo ([6]).

For assay [3] the following is noted: from conger eel (Conger myriaster); read-out: IC50 (anti-oxidative effects); cited from earlier work. An excerpt: Anguilla japonica, also known as eel, is a type of aquatic food that contains high levels of protein, fat, vitamin A, vitamin E, and other nutrients ([11]). It is particularly abundant in collagen. Eel processing is mainly based on grilled eel, most of which is exported abroad. During the eel processing of eels, various by-products such as fish heads and bones are generated. These by-products are mainly used in the production of animal feed or discarded. Eel bones have approximately 13.25% of protein, 19.18% of lipid, 5.63% of ash, and 56.96% of moisture content ([12]). Some bioactive peptides ...

pIC50: −log10 of the molar value. Like-named read-outs stand apart in the source and are kept apart here. Ends that are not written are not given here.

With GPPGPPGL [GPPGPPGL], the “Km with increasing peptide level” value on ACE [1] is on record as “increase”.

In the case of “Gln-Val-Glu-Tyr [literature peptide from Gracilariopsis lemaneiformis]”, in the assay on ACE [2] (from Gracilariopsis lemaneiformis), the pIC50 was 3.32.

In the case of “Ile-Pro-Ile-Lys [literature peptide from Euphausia superba]”, the pIC50 in the assay with ACE [2] (from Euphausia superba) is 4.24.

For the substance “LGLNGDDVN [literature anti-oxidative peptide from conger eel (Conger myriaster)]”, the pIC50 in assay [3] was 4.11.

As to “Trp-Pro-Met-Gly-Phe [literature peptide from Cyclina sinensis]”, the negative logarithm of the IC50 (pIC50) in the assay on ACE [2] (from Cyclina sinensis) is 3.10.
